Literature values, collected in patent US20180267043A1, “USE OF BIOMARKERS FOR PREDICTING CLINICAL SENSITIVITY TO CANCER TREATMENT” (CELGENE CORPORATION, priority 2014, published 2018).

Columns and labels:
[1] = target: CRBN (Homo sapiens, UniProt Q96SW2, W386A/Y384A); conditions: double mutant; cited from earlier work
[2] = tested on: CRBN; conditions: individual point mutants; cited from earlier work
[3] = target: T1, CRBN (Homo sapiens, UniProt Q96SW2); conditions: Ito et al., Science 2010; cited from earlier work
Target sequence in this assay (Q96SW2 whole entry): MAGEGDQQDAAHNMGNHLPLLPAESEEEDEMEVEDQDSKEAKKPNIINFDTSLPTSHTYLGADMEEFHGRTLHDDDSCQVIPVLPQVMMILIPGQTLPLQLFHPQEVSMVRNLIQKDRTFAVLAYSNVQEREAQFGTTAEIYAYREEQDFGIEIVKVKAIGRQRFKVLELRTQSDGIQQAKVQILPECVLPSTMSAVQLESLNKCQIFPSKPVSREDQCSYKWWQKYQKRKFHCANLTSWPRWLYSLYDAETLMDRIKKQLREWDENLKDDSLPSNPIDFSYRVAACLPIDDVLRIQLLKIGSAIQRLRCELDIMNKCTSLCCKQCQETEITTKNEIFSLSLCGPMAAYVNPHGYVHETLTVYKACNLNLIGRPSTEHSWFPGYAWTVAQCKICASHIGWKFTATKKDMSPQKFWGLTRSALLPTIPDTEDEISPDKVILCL

[4] = target: T1, CRBN; conditions: in vitro; cited from earlier work
Target sequence in this assay (Q96SW2 whole entry): as above
Target sequence in this assay (Q16531 whole entry partner): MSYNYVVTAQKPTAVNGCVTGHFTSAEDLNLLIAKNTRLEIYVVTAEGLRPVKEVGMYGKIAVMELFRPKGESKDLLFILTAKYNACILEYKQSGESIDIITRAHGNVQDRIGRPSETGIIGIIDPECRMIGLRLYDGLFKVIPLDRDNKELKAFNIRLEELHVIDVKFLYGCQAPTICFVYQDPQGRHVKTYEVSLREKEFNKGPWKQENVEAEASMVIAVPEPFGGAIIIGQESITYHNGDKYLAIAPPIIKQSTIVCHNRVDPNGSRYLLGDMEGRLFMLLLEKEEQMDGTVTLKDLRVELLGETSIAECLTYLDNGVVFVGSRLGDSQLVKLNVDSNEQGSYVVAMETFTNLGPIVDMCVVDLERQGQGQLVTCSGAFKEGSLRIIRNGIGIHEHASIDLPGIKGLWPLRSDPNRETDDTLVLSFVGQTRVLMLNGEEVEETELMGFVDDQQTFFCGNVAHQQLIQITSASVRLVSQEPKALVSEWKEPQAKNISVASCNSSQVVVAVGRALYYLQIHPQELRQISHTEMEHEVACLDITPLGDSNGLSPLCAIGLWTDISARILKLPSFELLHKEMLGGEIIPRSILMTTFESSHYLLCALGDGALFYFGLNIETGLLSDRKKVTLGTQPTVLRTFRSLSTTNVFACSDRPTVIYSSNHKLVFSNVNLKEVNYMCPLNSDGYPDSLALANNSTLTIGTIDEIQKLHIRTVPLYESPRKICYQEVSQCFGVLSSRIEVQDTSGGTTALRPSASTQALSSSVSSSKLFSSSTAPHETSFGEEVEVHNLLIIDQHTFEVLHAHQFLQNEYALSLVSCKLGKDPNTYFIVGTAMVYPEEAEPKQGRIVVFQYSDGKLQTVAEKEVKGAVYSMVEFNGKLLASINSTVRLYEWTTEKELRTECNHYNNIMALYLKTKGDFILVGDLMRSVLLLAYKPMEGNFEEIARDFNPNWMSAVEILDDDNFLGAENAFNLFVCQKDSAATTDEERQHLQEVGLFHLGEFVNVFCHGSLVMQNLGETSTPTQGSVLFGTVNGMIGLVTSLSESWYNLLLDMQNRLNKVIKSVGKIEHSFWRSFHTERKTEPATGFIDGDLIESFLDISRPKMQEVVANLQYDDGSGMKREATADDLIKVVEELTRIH
Target sequence in this assay (Q13619 whole entry partner): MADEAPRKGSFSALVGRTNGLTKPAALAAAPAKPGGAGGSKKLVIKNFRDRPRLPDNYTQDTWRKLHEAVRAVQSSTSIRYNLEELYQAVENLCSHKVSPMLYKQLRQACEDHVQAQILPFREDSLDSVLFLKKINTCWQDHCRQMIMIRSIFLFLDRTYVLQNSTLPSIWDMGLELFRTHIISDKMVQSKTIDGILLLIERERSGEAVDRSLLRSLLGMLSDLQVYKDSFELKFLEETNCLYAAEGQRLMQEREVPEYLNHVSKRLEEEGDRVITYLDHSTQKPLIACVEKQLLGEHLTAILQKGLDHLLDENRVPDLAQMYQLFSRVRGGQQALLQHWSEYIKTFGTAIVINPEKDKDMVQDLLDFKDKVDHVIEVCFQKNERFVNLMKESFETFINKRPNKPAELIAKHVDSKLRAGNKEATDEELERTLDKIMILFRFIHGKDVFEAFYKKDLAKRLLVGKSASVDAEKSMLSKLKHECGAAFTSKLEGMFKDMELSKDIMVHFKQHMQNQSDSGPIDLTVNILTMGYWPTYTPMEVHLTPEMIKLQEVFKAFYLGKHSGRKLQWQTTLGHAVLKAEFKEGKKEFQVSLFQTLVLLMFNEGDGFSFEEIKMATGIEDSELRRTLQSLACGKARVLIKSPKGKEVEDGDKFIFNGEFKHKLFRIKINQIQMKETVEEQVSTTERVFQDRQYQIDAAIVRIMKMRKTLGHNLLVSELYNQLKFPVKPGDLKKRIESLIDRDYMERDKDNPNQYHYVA
Target sequence in this assay (P62877 whole entry partner): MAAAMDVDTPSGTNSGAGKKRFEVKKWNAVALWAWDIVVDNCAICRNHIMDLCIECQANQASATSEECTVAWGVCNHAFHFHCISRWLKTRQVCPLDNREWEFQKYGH

CRBN (Homo sapiens, UniProt Q96SW2, W386A/Y384A), sequence (Q96SW2 whole entry Y384A/W386A): as the sequence (Q96SW2 whole entry) above, with Y384A, W386A counted along it

In the case of O=C1CCC(N2C(=O)c3ccccc3C2=O)C(=O)N1 (stereo not shown) [thalidomide], the “Binding to CRBN double mutant (Y384A, W386A)” value [1] is listed as “lowest thalidomide-binding activity”, the “Binding to CRBN point mutants Y384A and W386A” value [2] is listed as “both defective for thalidomide binding” and the “Binding to CRBN” value [3] is listed as “binds to thalidomide”. The “Auto-ubiquitination of CRBN” value [4] was “inhibit auto-ubiquitination of CRBN in vitro”.
